Experiments:
[1] = Preliminary pharmacokinetic study, single intravenous dosage; assay type: in vivo, female C57BL/6(Es-1^c) nude mice; details: female, C57BL/6(Es-1^c) nude, mouse, whole blood; intravenous 1 mg/kg, mice, non-compartmental model
Protocol: Experiment methods and procedures are as follows: female C57BL/6(Es-1^c) nude mice, weight 18-25 g, age 6-8 weeks, other, 3 female C57BL/6(Es-1^c) nude mice for blank samples, prepare for the standard curve for analysis. Intravenous dosage 1 mg/kg, delivery volume 5 mL/kg. Intravenous injection drug solution: DMSO:Solutol HS15:Saline=5:5:90, v/v/v. […] Female C57BL/6(Es-1^c) nude mice after intravenous injection dosage collect about 20 μL bloods from the mouse tail vein at 0.25 h, 2 h, 8 h and 24 h, use K2EDTA anticoagulant. Use steamed water to dilute the blood sample in accordance with volume in 3 times and store the diluted blood sample at −70° C. for analysis.
Data analysis: use WinNonlin (version 6.2) software, based on non-compartmental model to calculate the pharmacokinetic parameters.
Experiment methods and procedures are as follows: female C57BL/6(Es-1^c) nude mice, weight 18-25 g, age 6-8 weeks, other, 3 female C57BL/6(Es-1^c) nude mice for blank samples, prepare for the standard curve for analysis. Intravenous dosage 1 mg/kg, delivery volume 5 mL/kg. Intravenous injection drug solution: DMSO:Solutol HS15:Saline=5:5:90, v/v/v. […] Female C57BL/6(Es-1^c) nude mice after intravenous injection dosage collect about 20 μL blood from the mouse tail vein at 0.25h, 2h, 8h and 24 h, use K2EDTA anticoagulant. Use steamed water to dilute the blood sample in accordance with volume in 3 times and store the diluted blood sample at −70° C. for analysis.
Experiment methods and procedures are as follows: female C57BL/6(Es-1^c) nude mice, weight 18-25 g, age 6-8 weeks, other, 3 female C57BL/6(Es-1^c) nude mice for blank samples, prepare for the standard curve for analysis. Intravenous dosage 1 mg/kg, delivery volume 5 mL/kg.

[2] = system: KBM5 (human wild type Bcr-Abl) cells; test: KBM5 tumor growth inhibition test in vitro (ATP method); assay type: cell-based; details: 72 hours incubation, read-out: IC50, cytotoxicity to KBM5 cells
Protocol: (§1) Using ATP method to determine the cell toxicity of compound BGC of the present invention. Adjust the KBM5 cells to a suitable cell density. 140 ul cell suspensions inoculated each hole on 96-well plate. The vaccination density of each species cell is: 2000-6000; then the cell culture plate is placed in the incubator for 24 hours so that it is attached on the wall holes. Using 3 times dilution method to prepare the solution of BGC compound with different concentrations, and add them into the correspond holes on 96-well plate with vaccination in advance, 10 μL of each hole, and its final concentrations are as follows: 100 μM, 33.3 μM, 11.1 μM, 3.70 μM, 1.23 μM, 0.41 μM, 0.14 μM, 0.046 μM, 0.015 μM. Duplicate 3 times of each concentration. After 72 hours incubation in 37° C. incubator, detect the cell proliferation of each hole with ATP method, and calculate the drug concentration to median lethal concentration IC50 of KBM5 cells.
as §1, with “BP” for “BGC”, “KBM5 and KBM5R” for “KBM5”, “method” for “method,”
Using ATP method to determine the cell toxicity of compound BDB of the present invention. Adjust the KBM5 and KBM5R cells to a suitable cell density. 140 ul cell suspensions inoculated each hole on 96-well plate. […]

[3] = system: KBM5 (Bcr-Abl positive) cell subcutaneous implanted tumor; test: Leukemia subcutaneous xenograft growth inhibition test, KBM5; assay type: in vivo, C57BL/6(Es-1^c) nude mice; details: dosed once a day for two weeks, tumor volume; for inhibitory effect compared with Imatinib in KBM5 subcutaneous tumor model: positive control 160 mg/Kg Imatinib
Description: According to the test results of the growth inhibition in vitro, assess inhibitory effect of the BGC to transplant subcutaneously in C57BL/6(Es-1^c) nude mice with human leukemia KBM5 cells growth.
Study tumor growth if it can be inhibited, slowed or cured. Twice a week or every other day, use a vernier caliper to measure the tumor size. The calculation formula of tumor volume: V=0.5a×b^2, a, b respectively represent the long and short radius of the tumor.
(§2) Data analysis: T test is used for the comparison between the two groups; one-way ANOVA is used between three or more groups. If there is a significant difference of f value, multiple comparisons should be used additional to ANOVA analysis. Two-way ANOVA is used to analyze potential synergies of combined drug group. All data analysis use SPSS 17.0; p<0.05 is considered with a significant difference.
According to the test results of the growth inhibition in vitro, select the minimum IC50 of the compound BP of the present invention, assess inhibitory effect of the BP to transplant subcutaneously in C57BL/6(Es-1^c) nude mice with human leukemia KBM5 and KBM5R cells growth.
According to the test results of the growth inhibition in vitro, select the minimum IC50 of the compound BDB of the present invention, assess inhibitory effect of the BDB to transplant subcutaneously in C57BL/6(Es-1^c) nude mice with human leukemia KBM5 and KBM5R cells growth.

c-Abl tyrosine kinase = c-Abl tyrosine kinase (Homo sapiens, UniProt P00519); test: Mobility Shift Assay, inhibition of kinase Abl in vitro; assay type: biochemical; details: 10 concentrations 100 μM to 0.005 μM
c-Abl tyrosine kinase, sequence (P00519 whole entry): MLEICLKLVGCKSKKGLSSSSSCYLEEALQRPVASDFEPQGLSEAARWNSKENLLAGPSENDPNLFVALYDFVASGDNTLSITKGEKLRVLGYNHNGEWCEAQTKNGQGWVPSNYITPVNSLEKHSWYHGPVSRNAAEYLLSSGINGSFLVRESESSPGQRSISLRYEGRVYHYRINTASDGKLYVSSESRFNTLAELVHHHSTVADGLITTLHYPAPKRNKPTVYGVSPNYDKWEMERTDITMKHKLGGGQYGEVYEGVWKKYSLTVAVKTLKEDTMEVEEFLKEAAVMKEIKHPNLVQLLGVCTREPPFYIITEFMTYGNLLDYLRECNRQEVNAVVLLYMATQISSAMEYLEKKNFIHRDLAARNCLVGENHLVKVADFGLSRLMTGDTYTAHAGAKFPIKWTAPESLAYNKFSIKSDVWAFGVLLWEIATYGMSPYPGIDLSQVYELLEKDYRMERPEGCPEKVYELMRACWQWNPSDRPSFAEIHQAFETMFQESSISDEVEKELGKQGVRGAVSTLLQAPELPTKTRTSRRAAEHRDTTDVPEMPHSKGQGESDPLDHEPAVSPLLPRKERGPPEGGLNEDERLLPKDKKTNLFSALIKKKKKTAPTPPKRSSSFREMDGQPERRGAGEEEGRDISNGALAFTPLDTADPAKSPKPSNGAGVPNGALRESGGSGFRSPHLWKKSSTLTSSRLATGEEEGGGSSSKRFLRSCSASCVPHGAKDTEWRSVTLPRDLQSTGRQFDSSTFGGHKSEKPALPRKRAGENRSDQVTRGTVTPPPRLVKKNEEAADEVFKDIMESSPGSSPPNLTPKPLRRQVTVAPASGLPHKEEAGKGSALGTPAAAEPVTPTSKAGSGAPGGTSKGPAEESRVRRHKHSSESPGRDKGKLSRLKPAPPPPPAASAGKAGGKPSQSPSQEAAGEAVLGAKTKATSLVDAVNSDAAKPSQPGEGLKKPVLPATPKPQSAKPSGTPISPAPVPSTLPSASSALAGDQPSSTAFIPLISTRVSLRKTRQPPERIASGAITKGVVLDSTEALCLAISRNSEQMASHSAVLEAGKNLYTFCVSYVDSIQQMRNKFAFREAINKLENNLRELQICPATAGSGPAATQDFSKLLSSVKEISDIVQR
Protocol: (§3) Using the method of mobility Shift Assay, detect activity of the compound BGC with kinase Abl in vitro. The concentration of BGC was diluted from 100 μM with 100% DMSO to 0.005 μM using 3 times dilution method, 10 concentrations in total for detection (2 duplicate) with staurosporine as standard control, set solvent control (10% DMSO) and negative control (EDTA).
(§4) Detect activity of different concentrations of the compound BGC on 384 holes reaction plate by enzyme-linked immune response on the inhibition of the kinase Abl, read the conversion rate data on Caliper, and convert the conversion rate to inhibition rate. Percent inhibition=(max−conversion)/(max−min)*100
Wherein, max is the conversion rate of DMSO control; min refers to the conversion rate of enzyme-free control.
According to inhibition rate of the concentrations, calculate the half inhibitory concentration IC50 of the compound BGC to tyrosine kinase Abl.
as §3, with “Mobility” for “mobility”, “BP” for “BGC”
as §4, with “BP” for “BGC”
Wherein, max is the conversion rate of DMSO control, min refers to the conversion rate of enzyme-free control.
According to inhibition rate of the concentrations, calculate the half inhibitory concentration IC50 of the compound BP to tyrosine kinase c-Abl. […]
Detect activity of different concentrations of the compound BDB on 384 holes reaction plate by enzyme-linked immune response on the inhibition of the kinase Abl, read the conversion rate data on Caliper, and convert the conversion rate to inhibition rate. […]

[4] = system: KBM5R (Bcr-Abl T315I mutation) cells; test: KBM5R tumor growth inhibition test in vitro (ATP method); assay type: cell-based; details: Homo sapiens, 72 hours incubation, read-out: IC50, cytotoxicity to KBM5R cells
Protocol: as §1, with “BP” for “BGC”, “KBM5 and KBM5R” for “KBM5”, “method” for “method,”
Using ATP method to determine the cell toxicity of compound BDB of the present invention. Adjust the KBM5 and KBM5R cells to a suitable cell density. 140 ul cell suspensions inoculated each hole on 96-well plate. The vaccination density of each species cell is: 2000-6000; then the cell culture plate is placed in the incubator for 24 hours so that it is attached on the wall holes. […]

[5] = system: KBM5R (Bcr-Abl T315I mutation) cell subcutaneous implanted tumor; test: Leukemia subcutaneous xenograft growth inhibition test, KBM5R; assay type: in vivo, C57BL/6(Es-1^c) nude mice; details: dosed once a day for two weeks, tumor volume; Imatinib 160 mg/Kg
Description: Twice a week or every other day, use a vernier caliper to measure the tumor size. The calculation formula of tumor volume: V=0.5a×b^2, a, b respectively represent the long and short radius of the tumor.
as §2

## CO[C@H](C(=O)N1Cc2[nH]nc(NC(=O)c3ccc(CN4CCN(CCC(=O)NCCCOCCOCCOCCCNC(=O)CCCC(=O)NCCCOCCOCCOCCCNC(=O)CCN5CCN(Cc6ccc(C(=O)Nc7n[nH]c8c7CN(C(=O)[C@H](OC)c7ccccc7)C8)cc6)CC5)CC4)cc3)c2C1)c1ccccc1 [compound BDB]
[1]
  half-life: 3.8 h
[2]
  IC50: 7 µM
[3]
  anti-tumor efficacy in KBM5 subcutaneous tumor model: has anti-tumor efficacy
  inhibitory effect compared with Imatinib in KBM5 subcutaneous tumor model: same inhibitory effect with a dosage of 80 mg/kg as Imatinib of 160 mg/kg
c-Abl tyrosine kinase
  IC50: 0.05 µM
[4]
  IC50: 8.9 µM
[5]
  anti-tumor efficacy in KBM5R subcutaneous tumor model: has anti-tumor efficacy

## Cc1ccc(NC(=O)c2ccc(CN3CCN(CCC(=O)NCCCOCCOCCOCCCNC(=O)CCCC(=O)NCCCOCCOCCOCCCNC(=O)CCN4CCN(Cc5ccc(C(=O)Nc6ccc(C)c(Nc7nccc(-c8cccnc8)n7)c6)cc5)CC4)CC3)cc2)cc1Nc1nccc(-c2cccnc2)n1 [compound BGC]
[1]
  half-life: 3.5 h
[2]
  IC50: 9 µM
[3]
  anti-tumor efficacy in KBM5 subcutaneous tumor model: has anti-tumor efficacy
  inhibitory effect compared with Imatinib in KBM5 subcutaneous tumor model: same inhibitory effect with a dosage of 350 mg/kg as Imatinib of 160 mg/kg
c-Abl tyrosine kinase
  IC50: 0.02 µM

## Cc1ccc(C(=O)Nc2ccc(CN3CCN(CCC(=O)NCCCOCCOCCOCCCNC(=O)CCCC(=O)NCCCOCCOCCOCCCNC(=O)CCN4CCN(Cc5ccc(NC(=O)c6ccc(C)c(C#Cc7cnc8cccnn78)c6)cc5C(F)(F)F)CC4)CC3)c(C(F)(F)F)c2)cc1C#Cc1cnc2cccnn12 [compound BP]
[1]
  half-life: 3.5 h
[2]
  IC50: 2 µM
[3]
  anti-tumor efficacy in KBM5 subcutaneous tumor model: has anti-tumor efficacy
  inhibitory effect compared with Imatinib in KBM5 subcutaneous tumor model: same inhibitory effect with a dosage of 80 mg/kg as Imatinib of 160 mg/kg
c-Abl tyrosine kinase
  IC50: 0.01 µM
[4]
  IC50: 5 µM
[5]
  anti-tumor efficacy in KBM5R subcutaneous tumor model: has anti-tumor efficacy
